Laboratory results reported in article PMC5567816 (ACS chemical biology, 2017).
“Also recorded” adds a separate entry of the source.

How the values were obtained:
A549 cell line = conditions: reasonable concentrations; cited from earlier work
Hek293 cells [1] = assay: global valerylation levels of Hek293 cells; format: cell-based; conditions: inhibitors 1 μM, tubA 0.5 μM, 24 h
HCT116 and HT29 cells = conditions: 2 μM for 24 h; cited from earlier work
RAW264.7 cells [2] = assay: Western blot of RAW264.7 cells, protein acetylation; format: cell-based; conditions: tubA at 0.5 μM
Hek293 cells [3] = assay: Western blot of Hek293 cells, histone and tubulin acetylation; format: cell-based; conditions: inhibitors 1 μM, tubA 0.5 μM, 24 h
HDAC6 = HDAC6 specific inhibitor; cited from earlier work
Hek293 lysates = assay: deacylase activities of Hek293 lysates with inhibitors; format: cell-based; conditions: 24 h; vorinostat and PD-106 1 μM, tubA 0.5 μM
Hek293 cells [4] = assay: global formylation levels of Hek293 cells; format: cell-based; conditions: inhibitors 1 μM, tubA 0.5 μM, 24 h
RAW264.7 macrophages = assay: NO production in LPS-challenged RAW264.7 macrophages; format: cell-based; conditions: 1 μM; decrease completely offset when normalized
RAW264.7 cells [5] = assay: HMGB-1 secretion from activated RAW264.7 cells; format: cell-based; conditions: LPS-activated RAW264.7; 6 h
RAW264.7 cells [6] = assay: cell viability of RAW264.7 cells; format: cell-based
HDAC3 = HDAC3 (Homo sapiens, UniProt O15379); assay: HDAC3 coincubated with TFA substrate and inhibitor
Chain of HDAC3 (O15379 whole entry): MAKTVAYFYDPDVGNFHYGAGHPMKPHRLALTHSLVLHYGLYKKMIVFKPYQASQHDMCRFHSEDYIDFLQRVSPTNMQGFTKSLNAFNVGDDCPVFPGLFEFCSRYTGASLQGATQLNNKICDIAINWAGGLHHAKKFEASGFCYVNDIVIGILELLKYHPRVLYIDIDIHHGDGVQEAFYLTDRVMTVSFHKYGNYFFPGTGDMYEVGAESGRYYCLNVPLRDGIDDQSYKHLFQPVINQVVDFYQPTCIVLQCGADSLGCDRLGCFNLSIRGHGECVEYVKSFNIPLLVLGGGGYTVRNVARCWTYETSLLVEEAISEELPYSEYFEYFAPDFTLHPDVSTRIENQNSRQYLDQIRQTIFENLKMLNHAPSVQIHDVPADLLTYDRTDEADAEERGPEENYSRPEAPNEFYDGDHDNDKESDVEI
Chain of HDAC3 (Q9Y618 395-489 partner limits assumed): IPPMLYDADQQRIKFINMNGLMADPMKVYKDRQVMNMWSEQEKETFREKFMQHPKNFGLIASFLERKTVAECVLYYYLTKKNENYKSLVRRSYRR

RAW264.7 cells [7] = assay: p65 and HDAC3 subcellular localization in LPS-treated RAW264.7 cells; format: cell-based; conditions: after LPS treatment
class IIa HDACs = conditions: cited from earlier work

SMILES	p53 Lys373 and Lys382 acetylation (A549 cell line)	global protein valerylation (Hek293 cells [1])	p53 Lys382 acetylation (HCT116 and HT29 cells)	p53 Lys382 acetylation (RAW264.7 cells [2])	histone H3 and H4 acetylation (Hek293 cells [3])	tubulin acetylation (Hek293 cells [3])	IC50 (HDAC6) [nM]	deacetylase activity of Hek293 lysates (Hek293 lysates)	deformylase activity of Hek293 lysates (Hek293 lysates)	devalerylase activity of Hek293 lysates (Hek293 lysates)	global protein formylation (Hek293 cells [4])	NO release, before normalization to cell count/viability (RAW264.7 macrophages)	HMGB-1 secretion (RAW264.7 cells [5])	lethality (cell viability) (RAW264.7 cells [6])	effect on HDAC3's ability to deacylate the TFA substrate (HDAC3)	nuclear localization of HDAC3 (RAW264.7 cells [7])	inhibitory activity for class IIa HDACs (class IIa HDACs)
C/C=C1\NC(=O)[C@H]2CSSCC/C=C/[C@H](CC(=O)N[C@H](C(C)C)C(=O)N2)OC(=O)[C@H](C(C)C)NC1=O [romidepsin]	induce hyperacetylation of Lys373 and Lys382																
CN1CCc2c(c3ccccc3n2Cc2ccc(C(=O)NO)cc2)C1 [Tubastatin A]		nonsignificant hypovalerylation	able to induce hyperacetylation of Lys382	do not demonstrate this increase	only affected acetylated tubulin levels	only affected acetylated tubulin levels	[…]	did not affect overall deacetylation activity; also recorded: no effect on deacetylation or devalerylation	did lower deformylation activity	no effect on deacetylation or devalerylation	induced global protein hyperformylation						
O=C(CCCCCCC(=O)Nc1ccccc1)NO [vorinostat]		global protein hypervalerylation			induced hyperacetylation of tubulin and histones H3 and H4	induced hyperacetylation of tubulin and histones H3 and H4		inhibit both deacetylation and deformylation; also recorded: lowering in both deacetylation and devalerylation	inhibit both deacetylation and deformylation	lowering in both deacetylation and devalerylation	caused global protein hyperformylation	did lower NO release	prevents HMGB-1 secretion	more lethal than 2a–2c	capable of altering HDAC3’s ability to deacylate the TFA substrate	not as pronounced	
Nc1ccccc1NC(=O)c1ccc(CNC(=O)OCc2cccnc2)cc1 [entinostat]		global protein hypervalerylation			induced hyperacetylation of histones	without affecting tubulin acetylation levels					also capable of this effect	did lower NO release		more lethal than 2a–2c			
O=C(NO)C(c1ccccc1)c1ccccc1 [dPAHA, diphenyl acetic hydroxamic acid]																	only possesses the ability to inhibit class IIa HDACs
